From US20240228491A1, “METHIONINE ADENOSYLTRANSFERASE INHIBITOR, PREPARATION METHOD THEREFOR AND APPLICATION THEREOF” (SCINNOHUB PHARMACEUTICAL CO., LTD., priority 2021, published 2024) come the findings set out here.

pIC50: −log10 of the molar value.

One experiment has as its target MAT2a (Homo sapiens (Human), UniProt P31153). Briefly: MAT2a enzymatic activity test (colorimetric assay). Type of experiment: biochemical. The settings on record: OD620, 150 min reaction, read-out: IC50 against MAT2a. How it is done: The Colorimetric assay method was used to detect the IC50 value of the tested compounds on MAT2a.
The specific steps were as follows: The compounds having the test starling concentration of 1 μM or 10 μM were diluted into 10 concentration points in a 3-fold gradient. 250 nL of the solutions of the compounds to be tested with 10 different concentrations were taken and added into a 384 well plate for later use. 20 μg/mL of MAT2a enzyme solution was prepared with Assay buffer (50 mM Tris, 50 mM KCl, 10 mM MgCl2, 0.05% polyoxyethylene lauryl ether, pH 8.0). 15 μL of the MAT2a enzyme solution at 20 μg/mL was add into the wells of the compounds to be tested at different concentrations; and 15 μL of Assay buffer was added into the negative control well. An incubation was carried out for 15 minutes after shaking for mixing well. A mixed substrate solution (comprising 400 μM ATP and 600 μM L-Methionine) was prepared with Assay buffer. 10 μL of the mixed substrate solution was added to the positive control well, the compound to be tested well, and the negative control well, respectively, and the reaction began, for a reaction time of 150 min. Then, 50 μL of the reaction stop solution (BIOMOL Green™ Reagent Enzo lifesciences, Cargo No. BML-AK111-1000) was added to stop the reaction, followed by being centrifuged at 1000 rpm for 60 s and then being incubated for 15 min. OD620 was read and data were processed.
By using the log value of the concentration as the X-axis and the inhibition % as the Y-axis, the IC50 value of each compound against enzyme activity was obtained through employing the log(inhibitor) vs. response-Variable slope fitting dose-effect curve of the analysis software GraphPad Prism 5.

A further experiment concerns HCT116 MTAP-/- cells. Briefly: Activity test of HCT116 MTAP gene homozygous deletion cells (CellTiter-Glo). Type of experiment: cell-based. The settings on record: Homo sapiens, HCT-116, 120 h incubation, read-out: HCT116 MTAP-/- Cell IC50. As to the method: On day 1, cell seeding: after digestion of the cells with trypsin, the cells were resuspended to the desired density with the complete medium (RPMI-1640 supplemented with 10% FBS; the brand of FBS is EXCELL, Cat. No. FND500; the brand of RPMI-1640 is ATCC, Cat. No. 30-2001), mixed evenly, and added into the 96-well plate at 100 μL/well with a cell density of 1000-3000 cells per well. The plate was put back to the incubator for the adherent growth of cells. On day 2, the addition of the compounds to be tested: before the addition of the compounds, the cells were starved with serum-free medium for 4 h, then the complete medium containing the corresponding concentration of compounds was added thereto, and the cells were incubated at 37° C., 5% CO2 for 120 h. On day 7, the cell culture plates were taken out from incubator and equilibrated to room temperature. 50 μL of CellTiter-Glo (Promega Company, Cat. No. G7571) reagent was added per well, and the cells were fully lysed by shaking at room temperature for 2 min, and then incubated for another 60 min to detect the fluorescence intensity. Calculation formula:
(§1) % Inhibition=100−(signal of the well with the compound to be tested−signal of the well with only medium and free of cells)/(signal of the well with cells but without addition of the compound−signal of the well with only medium and free of cells)×100.
The fitting dose-effect curve of the analysis software GraphPad Prism 5 was used to give IC50 values of the individual compounds against cellular activity.
(In general: In ATP-based viability assays light output follows the ATP content of the culture.)

The test system of a further experiment is KP-4 cells. Briefly: Inhibitory activity test of KP-4 cells. The following applies: Homo sapiens, 144 h incubation, read-out: KP-4 cell inhibitory activity IC50. Type of experiment: cell-based. As to the method:
On day 1, cell seeding: after digestion of the cells with trypsin, the cells were resuspended to 1*10^4/mL with RPMI1640 complete medium (HyClone Company, Cat. No. SH30809.01) supplemented with 10% FBS (Gibco, 10099141C), mixed evenly, and added into the 96-well plate at 100 μL/well. The plate was put back to the incubator for the adherent growth of cells. On day 2, the addition of the compounds to be tested: 100 μL of the complete medium containing the compounds (the concentration of the compound in the medium was formulated as follows: 3-fold gradient dilution from 60 μM, 10 concentration gradients in total) was added, incubated for 144 hours at 37° C., 5% CO2. On day 8, the cell culture plates were taken out from incubator and equilibrated to room temperature, excess medium was pipetted from the wells so that 50 μL of supernatant was retained, and 50 μL of CellCounting-Lite 2.0 (Nanjing Vazyme Biotech Co., Ltd., Cat. No. DD1101) reagent was added per well, and the cells were fully lysed by shaking at room temperature for 10 min, and incubated for 5 min to detect the fluorescence intensity.
as §1
The log value of concentration was used as the X-axis and % Inhibition was used as the Y-axis, so as to fit the dose-effect curve and calculate the IC50 value using nonlinear regression (dose response−variable slope) in the analysis software GraphPad Prism 8.

Chain of MAT2a (P31153 whole entry): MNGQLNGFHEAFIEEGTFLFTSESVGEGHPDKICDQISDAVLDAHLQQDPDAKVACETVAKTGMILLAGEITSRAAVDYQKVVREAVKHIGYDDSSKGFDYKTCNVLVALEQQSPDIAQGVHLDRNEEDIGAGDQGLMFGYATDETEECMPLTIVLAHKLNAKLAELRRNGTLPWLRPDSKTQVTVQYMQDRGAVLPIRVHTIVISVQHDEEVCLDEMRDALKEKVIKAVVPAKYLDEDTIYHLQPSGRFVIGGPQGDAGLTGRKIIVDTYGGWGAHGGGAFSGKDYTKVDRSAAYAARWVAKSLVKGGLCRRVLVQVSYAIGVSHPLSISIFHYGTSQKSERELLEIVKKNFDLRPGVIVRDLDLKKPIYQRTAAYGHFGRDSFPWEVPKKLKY

Turning to `Nc1c(-c2ccco2)c(=O)n(-c2ccc(Cl)cc2)c2nc(C(F)(F)F)ccc12` [Example 30, 4-amino-1-(4-chlorophenyl)-3-(furan-2-yl)-7-(trifluoromethyl)-1,8-naphthyridin-2(1H)-one], the pIC50 on MAT2a is 7.87; in the experiment with HCT116 MTAP-/- cells, 7.65; with KP-4 cells, 6.26.

In the case of `CNc1c(-c2ccc3ncn(C)c3c2)c(=O)n(-c2ccccc2)c2nc(C(F)(F)F)ccc12` [Example 27], the pIC50 at MAT2a was 7.76; in the experiment with HCT116 MTAP-/- cells, 6.64; in the experiment on KP-4 cells, 5.79.

For the compound `Cn1cnc2ccc(-c3c(N)c4ccc(C(F)(F)F)nc4n(-c4ccc(Cl)cc4)c3=O)cc21` [Example 23], the pIC50 at MAT2a was 7.78; in the experiment on HCT116 MTAP-/- cells, 7.64; in the experiment with KP-4 cells, 6.21.

For `COc1ccc(-c2c(N)c3ccc(C(F)(F)F)nc3n(-c3ccc(Cl)cc3)c2=O)cc1` [Example 24], the figures for the pIC50 on MAT2a, with HCT116 MTAP-/- cells and in the experiment on KP-4 cells were 7.81, 7.94 and 7.00, respectively.

Turning to `Nc1c(-c2ccc3nnccc3c2)c(=O)n(-c2ccc(Cl)cc2)c2nc(C(F)(F)F)ccc12` [Example 55], the pIC50 on MAT2a was 7.79; in the experiment with HCT116 MTAP-/- cells it was 7.63; in the experiment on KP-4 cells, 6.30.

On to `Nc1c(-n2cccc2)c(=O)n(-c2ccc(Cl)cc2)c2nc(C(F)(F)F)ccc12` [Example 3, 4-amino-1-(4-chlorophenyl)-3-(1H-pyrrol-1-yl)-7-(trifluoromethyl)-1,8-naphthyridin-2(1H)-one], for which the pIC50 was 7.90 at MAT2a, 7.90 in the experiment with HCT116 MTAP-/- cells and 6.77 in the experiment with KP-4 cells.

Turning to `CS(=O)(=O)CCn1ncc2cc(-c3c(N)c4ccc(C(F)(F)F)nc4n(-c4ccc(Cl)cc4)c3=O)ccc21` [Example 52], the pIC50 on MAT2a is 7.79; in the experiment with KP-4 cells, 6.12.

Take `CNc1c(-c2nnco2)c(=O)n(-c2ccccc2)c2nc(C(F)(F)F)ccc12` [Example 6, 4-(methylamino)-3-(1,3,4-oxadiazol-2-yl)-1-phenyl-7-(trifluoromethyl)-1,8-naphthyridin-2(1H)-one]: the pIC50 on MAT2a is 7.39; in the experiment with HCT116 MTAP-/- cells, 6.31.

`Nc1c(-c2ccncn2)c(=O)n(-c2ccc(Cl)cc2)c2nc(C(F)(F)F)ccc12` [Example 39]: the pIC50 at MAT2a is 7.70; in the experiment on KP-4 cells, 6.39.

As for `Nc1c(-c2ccc3nccnc3n2)c(=O)n(-c2ccc(Cl)cc2)c2nc(C(F)(F)F)ccc12` [Example 67], the figures for the pIC50 on MAT2a, in the experiment with HCT116 MTAP-/- cells and in the experiment with KP-4 cells were 7.74, 7.79 and 6.12, respectively.

As to `Nc1ccc(-c2c(N)c3ccc(C(F)(F)F)nc3n(-c3ccc(Cl)cc3)c2=O)cc1` [Example 43], the pIC50 is 7.66 at MAT2a and 6.32 in the experiment on KP-4 cells.

Turning to `Nc1c(-c2ccc(F)cc2)c(=O)n(-c2ccc(Cl)cc2)c2nc(C(F)(F)F)ccc12` [Example 42], the values for the pIC50 at MAT2a, in the experiment on HCT116 MTAP-/- cells and in the experiment with KP-4 cells were 7.82, 8.08 and 6.32, respectively.

Consider `Nc1c(-c2ccc3ncccc3c2)c(=O)n(-c2ccc(Cl)cc2)c2nc(C(F)(F)F)ccc12` [Example 45], for which the pIC50 at MAT2a is 7.83; in the experiment on HCT116 MTAP-/- cells, 8.20; in the experiment with KP-4 cells it was 6.72.

On to `COc1cc(-c2c(N)c3ccc(C(F)(F)F)nc3n(-c3ccc(Cl)cc3)c2=O)ccn1` [Example 56], for which the pIC50 on MAT2a was 7.84; in the experiment with HCT116 MTAP-/- cells, 7.75; in the experiment with KP-4 cells, 5.95.

Take `Cn1cnc2ccc(-c3c(N)c4ccc(C(F)(F)F)nc4n(-c4ccc(Br)cc4)c3=O)cc21` [Example 80]: the figures for the pIC50 at MAT2a and in the experiment on HCT116 MTAP-/- cells were 7.81 and 7.88, respectively.

Consider `Nc1c(-n2cncn2)c(=O)n(-c2ccc(Cl)cc2)c2nc(C(F)(F)F)ccc12` [Example 41], for which the pIC50 was 7.74 on MAT2a and 5.51 in the experiment with KP-4 cells.

With `Cn1nc2ccc(-c3c(N)c4ccc(C(F)(F)F)nc4n(-c4ccc(Cl)cc4)c3=O)cc2n1` [Example 64], the pIC50 was 7.81 at MAT2a and 7.97 with HCT116 MTAP-/- cells.

Consider `Nc1c(-c2ccc3c(c2)NC(=O)CO3)c(=O)n(-c2ccc(Cl)cc2)c2nc(C(F)(F)F)ccc12` [Example 54], for which the pIC50 on MAT2a is 7.79; in the experiment on KP-4 cells, 6.02.

In the case of `Nc1c(-c2ccc3ncoc3c2)c(=O)n(-c2ccc(Cl)cc2)c2nc(C(F)(F)F)ccc12` [Example 22], the pIC50 was 7.82 on MAT2a, 7.68 in the experiment on HCT116 MTAP-/- cells and 6.14 with KP-4 cells.

In the case of `Nc1c(-c2ccc3c(c2)OCO3)c(=O)n(-c2ccc(Cl)cc2)c2nc(C(F)(F)F)ccc12` [Example 19], the pIC50 on MAT2a is 7.91; with HCT116 MTAP-/- cells, 7.88; in the experiment with KP-4 cells, 6.05.

On to `COc1ccc(-c2c(N)c3ccc(C(F)(F)F)nc3n(-c3ccc(Br)cc3)c2=O)cc1` [Example 79, 4-amino-1-(4-bromophenyl)-3-(4-methoxyphenyl)-7-(trifluoromethyl)-1,8-naphthyridin-2(1H)-one], for which the results for the pIC50 on MAT2a and with HCT116 MTAP-/- cells were 7.74 and 7.96, respectively.

For the compound `Nc1c(-c2ccc3c(c2)OCCO3)c(=O)n(-c2ccc(Cl)cc2)c2nc(C(F)(F)F)ccc12` [Example 53], the pIC50 was 7.84 on MAT2a, 7.67 in the experiment on HCT116 MTAP-/- cells and 6.62 in the experiment on KP-4 cells.

As to `Cn1nnc2ccc(-c3c(N)c4ccc(C(F)(F)F)nc4n(-c4ccc(Cl)cc4)c3=O)cc21` [Example 63], the pIC50 on MAT2a is 7.75; in the experiment with HCT116 MTAP-/- cells, 7.67.

Take `Nc1c(-n2cccn2)c(=O)n(-c2ccc(Cl)cc2)c2nc(C(F)(F)F)ccc12` [Example 38]: the pIC50 at MAT2a is 7.74; with KP-4 cells, 6.04.

Regarding `CNc1c(-n2cccn2)c(=O)n(-c2ccccc2)c2nc(C(F)(F)F)ccc12` [Example 15, 4-(methylamino)-1-phenyl-3-(1H-pyrazol-1-yl)-7-(trifluoromethyl)-1,8-naphthyridin-2(1H)-one], the pIC50 at MAT2a was 7.63; with HCT116 MTAP-/- cells it was 6.46; with KP-4 cells it was 5.01.

As for `CNc1c(-c2ccc(F)cc2)c(=O)n(-c2ccccc2)c2nc(C(F)(F)F)ccc12` [Example 26], the pIC50 is 7.75 on MAT2a, 6.21 in the experiment with HCT116 MTAP-/- cells and 4.99 in the experiment with KP-4 cells.

For `CNc1c(-c2cncs2)c(=O)n(-c2ccccc2)c2nc(C(F)(F)F)ccc12` [Example 29], the results for the pIC50 at MAT2a and in the experiment on HCT116 MTAP-/- cells were 7.60 and 6.37, respectively.
